Test results as given in US8192962B2, “Processes for detecting toxic substances” (Daikin Industries, Ltd., priority 2001, dated 2012).

Test system: Detoxification protein genes
Assay: DNA chip mRNA expression in yeast, detoxification protein genes (Table 8)
Format: cell-based, Saccharomyces cerevisiae S288C
Method in brief: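 Cells were grown at 25° C. in YPD, treated at logarithmic phase for 2 h with a chemical at a concentration inhibiting growth but not causing death, and compared with untreated cultures. Labeled cDNA was hybridized to a DNA chip carrying all yeast genes, and the expression ratio was taken from scanner fluorescence.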

CCCCCCCCCCCCc1ccc(S(=O)(=O)[O-])cc1.[Na+] [(17), sodium dodecylbenzosulfonate]
The level of expressed mRNA in the presence of chemical substance/The level of expressed mRNA in the absence of chemical substance (yeast gene YBL064C): 1.2 | The level of expressed mRNA in the presence of chemical substance/The level of expressed mRNA in the absence of chemical substance (yeast gene YBR008C): 2.0 | The level of expressed mRNA in the presence of chemical substance/The level of expressed mRNA in the absence of chemical substance (yeast gene YBR145W): 1.7 | The level of expressed mRNA in the presence of chemical substance/The level of expressed mRNA in the absence of chemical substance (yeast gene YBR244W): 1.2 | The level of expressed mRNA in the presence of chemical substance/The level of expressed mRNA in the absence of chemical substance (yeast gene YBR293W): 1.0 | The level of expressed mRNA in the presence of chemical substance/The level of expressed mRNA in the absence of chemical substance (yeast gene YCL035C): 2.6 | The level of expressed mRNA in the presence of chemical substance/The level of expressed mRNA in the absence of chemical substance (yeast gene YCL069W): 1.0 | The level of expressed mRNA in the presence of chemical substance/The level of expressed mRNA in the absence of chemical substance (yeast gene YCR083W): 1.3 | The level of expressed mRNA in the presence of chemical substance/The level of expressed mRNA in the absence of chemical substance (yeast gene YDL100C): 1.2 | The level of expressed mRNA in the presence of chemical substance/The level of expressed mRNA in the absence of chemical substance (yeast gene YDL168W): 0.9 | The level of expressed mRNA in the presence of chemical substance/The level of expressed mRNA in the absence of chemical substance (yeast gene YDR256C): 1.0 | The level of expressed mRNA in the presence of chemical substance/The level of expressed mRNA in the absence of chemical substance (yeast gene YDR453C): 1.0 | The level of expressed mRNA in the presence of chemical substance/The level of expressed mRNA in the absence of chemical substance (yeast gene YDR513W): 1.3 | The level of expressed mRNA in the presence of chemical substance/The level of expressed mRNA in the absence of chemical substance (yeast gene YDR538W): 1.0 | The level of expressed mRNA in the presence of chemical substance/The level of expressed mRNA in the absence of chemical substance (yeast gene YEL027W): 1.0 | The level of expressed mRNA in the presence of chemical substance/The level of expressed mRNA in the absence of chemical substance (yeast gene YEL065W): 0.7 | The level of expressed mRNA in the presence of chemical substance/The level of expressed mRNA in the absence of chemical substance (yeast gene YER185W): 2.6 | The level of expressed mRNA in the presence of chemical substance/The level of expressed mRNA in the absence of chemical substance (yeast gene YFL050C): 0.8 | The level of expressed mRNA in the presence of chemical substance/The level of expressed mRNA in the absence of chemical substance (yeast gene YGL013C): 1.1 | The level of expressed mRNA in the presence of chemical substance/The level of expressed mRNA in the absence of chemical substance (yeast gene YGL254W): 0.8 | The level of expressed mRNA in the presence of chemical substance/The level of expressed mRNA in the absence of chemical substance (yeast gene YGR088W): 0.9 | The level of expressed mRNA in the presence of chemical substance/The level of expressed mRNA in the absence of chemical substance (yeast gene YGR138C): 0.7 | The level of expressed mRNA in the presence of chemical substance/The level of expressed mRNA in the absence of chemical substance (yeast gene YGR197C): 1.7 | The level of expressed mRNA in the presence of chemical substance/The level of expressed mRNA in the absence of chemical substance (yeast gene YGR209C): 1.3 | The level of expressed mRNA in the presence of chemical substance/The level of expressed mRNA in the absence of chemical substance (yeast gene YGR224W): 2.8 | The level of expressed mRNA in the presence of chemical substance/The level of expressed mRNA in the absence of chemical substance (yeast gene YHL040C): 1.4 | The level of expressed mRNA in the presence of chemical substance/The level of expressed mRNA in the absence of chemical substance (yeast gene YHL047C): 1.2 | The level of expressed mRNA in the presence of chemical substance/The level of expressed mRNA in the absence of chemical substance (yeast gene YHR008C): 0.9 | The level of expressed mRNA in the presence of chemical substance/The level of expressed mRNA in the absence of chemical substance (yeast gene YHR048W): 0.7 | The level of expressed mRNA in the presence of chemical substance/The level of expressed mRNA in the absence of chemical substance (yeast gene YHR053C): 1.0 | The level of expressed mRNA in the presence of chemical substance/The level of expressed mRNA in the absence of chemical substance (yeast gene YHR055C): 0.9 | The level of expressed mRNA in the presence of chemical substance/The level of expressed mRNA in the absence of chemical substance (yeast gene YIR002C): 1.1 | The level of expressed mRNA in the presence of chemical substance/The level of expressed mRNA in the absence of chemical substance (yeast gene YIR038C): 2.8 | The level of expressed mRNA in the presence of chemical substance/The level of expressed mRNA in the absence of chemical substance (yeast gene YJL101C): 0.9 | The level of expressed mRNA in the presence of chemical substance/The level of expressed mRNA in the absence of chemical substance (yeast gene YJR104C): 0.9 | The level of expressed mRNA in the presence of chemical substance/The level of expressed mRNA in the absence of chemical substance (yeast gene YKL026C): 1.6 | The level of expressed mRNA in the presence of chemical substance/The level of expressed mRNA in the absence of chemical substance (yeast gene YKL064W): 1.3 | The level of expressed mRNA in the presence of chemical substance/The level of expressed mRNA in the absence of chemical substance (yeast gene YKR066C): 0.9 | The level of expressed mRNA in the presence of chemical substance/The level of expressed mRNA in the absence of chemical substance (yeast gene YKR105C): 0.8 | The level of expressed mRNA in the presence of chemical substance/The level of expressed mRNA in the absence of chemical substance (yeast gene YKR106W): 0.9 | The level of expressed mRNA in the presence of chemical substance/The level of expressed mRNA in the absence of chemical substance (yeast gene YLL028W): 1.2 | The level of expressed mRNA in the presence of chemical substance/The level of expressed mRNA in the absence of chemical substance (yeast gene YLL057C): 3.0 | The level of expressed mRNA in the presence of chemical substance/The level of expressed mRNA in the absence of chemical substance (yeast gene YLL060C): 1.9 | The level of expressed mRNA in the presence of chemical substance/The level of expressed mRNA in the absence of chemical substance (yeast gene YLR043C): 1.5 | The level of expressed mRNA in the presence of chemical substance/The level of expressed mRNA in the absence of chemical substance (yeast gene YLR046C): 5.2 | The level of expressed mRNA in the presence of chemical substance/The level of expressed mRNA in the absence of chemical substance (yeast gene YML028W): 1.1 | The level of expressed mRNA in the presence of chemical substance/The level of expressed mRNA in the absence of chemical substance (yeast gene YML116W): 1.0 | The level of expressed mRNA in the presence of chemical substance/The level of expressed mRNA in the absence of chemical substance (yeast gene YMR015C): 1.0 | The level of expressed mRNA in the presence of chemical substance/The level of expressed mRNA in the absence of chemical substance (yeast gene YMR038C): 1.2 | The level of expressed mRNA in the presence of chemical substance/The level of expressed mRNA in the absence of chemical substance (yeast gene YNL239W): 1.1 | The level of expressed mRNA in the presence of chemical substance/The level of expressed mRNA in the absence of chemical substance (yeast gene YNL241C): 1.0 | The level of expressed mRNA in the presence of chemical substance/The level of expressed mRNA in the absence of chemical substance (yeast gene YNL259C): 2.6 | The level of expressed mRNA in the presence of chemical substance/The level of expressed mRNA in the absence of chemical substance (yeast gene YOL158C): 1.4 | The level of expressed mRNA in the presence of chemical substance/The level of expressed mRNA in the absence of chemical substance (yeast gene YOR031W): 1.7 | The level of expressed mRNA in the presence of chemical substance/The level of expressed mRNA in the absence of chemical substance (yeast gene YOR153W): 2.5 | The level of expressed mRNA in the presence of chemical substance/The level of expressed mRNA in the absence of chemical substance (yeast gene YOR247W): 1.2 | The level of expressed mRNA in the presence of chemical substance/The level of expressed mRNA in the absence of chemical substance (yeast gene YOR251C): 0.9 | The level of expressed mRNA in the presence of chemical substance/The level of expressed mRNA in the absence of chemical substance (yeast gene YOR273C): 3.2 | The level of expressed mRNA in the presence of chemical substance/The level of expressed mRNA in the absence of chemical substance (yeast gene YPL163C): 1.4 | The level of expressed mRNA in the presence of chemical substance/The level of expressed mRNA in the absence of chemical substance (yeast gene YPR200C): 1.1
